Data: the supplement of paper PMC8837787

Key:
[1] = system: Saccharomyces cerevisiae ABC16-Green Monster; settings: 18 h; 30 °C; YPD
Method: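 Growth inhibition of the drug-sensitive S. cerevisiae ABC16-Green Monster strain (16 ABC transporters deleted) in YPD at 30 °C for 18 h. […] dilution series […] in biological replicates; IC50 from OD600 (18 h minus 0 h) fitted by variable-slope nonlinear regression in GraphPad Prism. Library compounds were first screened at 150 µM, and only those with at least 70% inhibition went to dose-response; the rest are marked inactive.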

[2] = system: Saccharomyces cerevisiae ABC16-Green Monster; assay: growth inhibition at single dose (up to 150 µM), below the 70% cut-off for dose-response; higher = more potent; settings: 18 h; 30 °C; YPD
Outline: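 Percent growth inhibition is the reported value. Drug-sensitive S. cerevisiae ABC16-Green Monster cultures in log phase (OD600 0.1–0.2), 200 µl per well in 96-well plates, received each library compound once at 150 µM in biological duplicates, with untreated cultures run alongside. Growth was followed by OD600 at 0 h and after 18 h at 30 °C. Dose-response was not done for compounds below 70% in both replicates.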

SMILES | IC50 growth inhibition [1] [µM] | growth inhibition at single dose [2] [%]
C(#Cc1ccc(-c2cc[nH]n2)s1)c1ccccc1 | 18.9 | –
CCn1nc(-c2ccc(C(=O)OC)cc2)nc2c(=O)n(C)c(=O)nc1-2 | 0.601 | –
O=C1C2=C(Nc3ccccc3SC2c2ccccc2F)c2ccccc21 (configuration not stated) | 9.02 | –
CN1C=C/C(=C/c2ccc3ccccc3[n+]2C)c2ccccc21 | 51.4 | –
CC(C)c1cc(NCCCN2CCOCC2)n2ncc(-c3ccccc3)c2n1 | 25.1 | –
CCCCc1oc2ccccc2c1C(=O)c1cc(I)c(OCCN(CC)CC)c(I)c1 [Amiodarone] | 5.72 | –
CCCCN(CCCC)CC(O)c1cc(Cl)cc2c1-c1ccc(Cl)cc1C2=Cc1ccc(Cl)cc1 (configuration not stated) [Lumefantrine] | > 75 | –
O=C(Nc1nc(-c2ccccn2)cs1)c1cncn1-c1ccccc1 | 26.2 | –
COCCNCC(O)Cn1c2ccc(Cl)cc2c2cc(Cl)ccc21 (configuration not stated) | 11 | –
Cc1ccc(OCCCCCCNCCO)c(C)c1 | – | < 70
C=c1ccccc1=C1NN=C(Nc2ccc(F)c(F)c2F)O1 | – | < 70
COc1ccc(Cl)cc1NC(=O)CN(C)C(=O)c1cnn(-c2ccccc2)n1 | – | < 70
COc1cc(CN2CCC3(C=Cc4ccccc43)CC2)cc2c1OCO2 | – | < 70
O=C(Nc1ccc(N2CCCC2)cn1)c1cc(Cl)ccn1 | – | < 70
CCCCc1ccc(NC(=O)Nc2ccc(O[C@H]3CCCC[C@@H]3N(C)c3ccccc3)c(F)c2)cc1 | – | < 70
CCOC(=O)c1c(C)[nH]c(C(=O)CSc2nnc(C3CC3)n2N)c1C | – | < 70
CC(C)(C)OC(=O)N1CCN(c2nccc(-c3ccc(-c4ccc(Cl)cc4)s3)n2)CC1 | – | < 70
CN(C)CCCNCc1ccc(-c2ccc(F)c(Cl)c2)o1 | – | < 70
O/N=C1/c2ccccc2-c2nnc(-c3cccc(OC(F)(F)F)c3)cc21 | – | < 70
COc1ccc(-c2nc3cc(Cc4ccc5[nH]c(-c6ccc(OC)cc6)nc5c4)ccc3[nH]2)cc1 | – | < 70
CCN(CC)CCCN1CCN(C(=O)c2cccc(-c3noc(C(F)(F)F)n3)c2)CC1 | – | < 70

SMILES | IC50 growth inhibition [1] [µM] | growth inhibition at single dose [2] [%]
Oc1ccc2ccccc2c1CNc1nc2ccccc2[nH]1 | – | < 70
COc1ccccc1N1CCN(C(CNS(=O)(=O)c2ccc(Cl)cc2)c2cccnc2)CC1 (configuration not stated) | – | < 70
CS(=O)(=O)Cc1nc2ccccc2oc1=O | – | < 70
CCOc1ccc2c(c1)CN(Cc1ccc(Cl)cc1)CO2 | – | < 70
O=C(Nc1cccnc1)c1c(O)c2cccc3c2n(c1=O)CC3 | – | < 70
CNC(=O)CNc1nc(-c2ccccn2)nc2scc(-c3ccccc3)c12 | – | < 70
FC(F)(F)c1nc(NCCNc2ccccn2)c2ccccc2n1 | – | < 70
CCOC(=O)c1noc(N)c1-c1ccccc1 | – | < 70
COc1cccc(OC)c1C(=O)Nc1ccc(Cl)c(-c2nc3ccccc3s2)c1 | – | < 70
Cc1ccccc1-n1nnc(C(=O)Nc2cccc(Br)c2)c1N | – | < 70
C=CCn1c(C)cc(C(=O)CSc2nc3ccccc3s2)c1C | – | < 70
Cc1ccc(S(=O)(=O)/N=C2\C=C3N(CCO)CCOC3(O)c3ccccc32)c(C)c1 (configuration not stated) | – | < 70
Cc1ccc(NC(=O)c2cc(S(=O)(=O)NC(C)(C)C)ccc2C)nc1 | – | < 70
COc1ccc(CNC2CCN(c3ccc(NC(=O)c4cccc(Cl)c4)cc3)CC2)cc1OC | – | < 70
CC(C)(C)OC(=O)N1CCC(Cn2nc(-c3cnc4ccccc4c3)c3c(N)ncnc32)CC1 | – | < 70
Cc1cccn2c(=O)cc(CN3C(=O)NC(C)(c4ccc(F)cc4)C3=O)nc12 (configuration not stated) | – | < 70
Cc1cc(NC(=O)c2ccc(-c3ccccc3)cc2)no1 | – | < 70
O=C(Nc1ccc(Cl)cc1)N1CCN(c2ccc3nncn3n2)CC1 | – | < 70
CC1CCCCN1C(=O)NCCc1coc(-c2ccc(F)cc2)n1 (configuration not stated) | – | < 70
CCOC(=O)c1cnc2ccc(Cl)cc2c1NCCCN(C)C | – | < 70
CN(C)c1ccc(-c2nc3cc(N)ccc3[nH]2)cc1 | – | < 70
